Target: P. falciparum apicoplast DNA polymerase (Pf-apPOL) (Plasmodium falciparum, UniProt Q8ILY1)
Test: Fluorescence-based high-throughput DNA polymerase assay (molecular beacon), primary screen and dose-response;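 for % inhibition Apol 40': compound concentration given in µM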
Type: biochemical
Settings: for DNA Pol: 90 min, 10 µM
Procedure, shortened: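 Single-point screening used 10 µM compound with 20 nM polymerase, 20 nM hairpin substrate and 6 µM dNTPs for 90 min at 25 °C. Confirmatory titrations (2.5–80 µM) followed fluorescence at three times, and IC50 was derived from a fit including a cooperativity term n.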

[1] = 'DNA Pol' of the 186 hits list (screen value)
[2] = primary screen value, "DNA Pol"

Sequence of P. falciparum apicoplast DNA polymerase (Pf-apPOL) (Q8ILY1 entry or part of it): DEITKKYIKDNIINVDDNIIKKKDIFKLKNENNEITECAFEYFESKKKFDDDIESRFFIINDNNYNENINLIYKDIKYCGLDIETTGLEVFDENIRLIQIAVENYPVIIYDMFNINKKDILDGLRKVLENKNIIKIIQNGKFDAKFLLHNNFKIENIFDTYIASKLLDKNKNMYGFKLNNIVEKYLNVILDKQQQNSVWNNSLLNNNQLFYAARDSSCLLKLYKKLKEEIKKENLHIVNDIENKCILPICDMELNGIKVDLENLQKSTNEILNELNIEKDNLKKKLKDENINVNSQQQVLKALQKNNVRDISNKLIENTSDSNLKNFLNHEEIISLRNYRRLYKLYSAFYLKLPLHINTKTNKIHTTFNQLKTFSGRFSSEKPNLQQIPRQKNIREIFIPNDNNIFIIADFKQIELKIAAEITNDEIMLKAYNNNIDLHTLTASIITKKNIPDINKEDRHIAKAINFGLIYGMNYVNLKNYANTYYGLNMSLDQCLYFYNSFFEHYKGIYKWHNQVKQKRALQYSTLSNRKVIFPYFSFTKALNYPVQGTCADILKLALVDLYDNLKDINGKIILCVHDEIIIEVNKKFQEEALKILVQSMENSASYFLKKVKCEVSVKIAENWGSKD

Compound: C=CC1=C(C)c2cc3[nH]c(cc4nc(cc5[nH]c(cc1n2)c(C)c5CCC(=O)O)C(CCC(=O)O)=C4C)c(C)c3C=C [Molecule 91, C=CC1=C(C)/C/2=C/c3[nH]c(c(c3C=C)C)/C=C/3\N=C(/C=c/4\[nH]/c(=C\C1=N2)/c(C)c4CCC(=O)O)C(=C3C)CCC(=O)O]
- DNA Pol [1]: 102
- % inhibition Apo pol 10' (DRC-1, conc 2.5): 61.8295%
- % inhibition Apo pol 10' (DRC-1, conc 5): 90.2247%
- % inhibition Apo pol 10' (DRC-1, conc 10): 94.5739%
- % inhibition Apo pol 10' (DRC-1, conc 20): 93.6963%
- % inhibition Apo pol 10' (DRC-1, conc 40): 92.3128%
- % inhibition Apo pol 10' (DRC-1, conc 80): 90.9627%
- % inhibition Apol 90' (DRC-1, conc 2.5): 48.9007%
- % inhibition Apol 90' (DRC-1, conc 5): 79.3077%
- % inhibition Apol 90' (DRC-1, conc 10): 94.695%
- % inhibition Apol 90' (DRC-1, conc 20): 95.5429%
- % inhibition Apol 90' (DRC-1, conc 40): 94.7622%
- % inhibition Apol 90' (DRC-1, conc 80): 94.048%
- % inhibition apPOL 180' (DRC-1, conc 2.5): 35.65%
- % inhibition apPOL 180' (DRC-1, conc 5): 71.3476%
- % inhibition apPOL 180' (DRC-1, conc 10): 94.4178%
- % inhibition apPOL 180' (DRC-1, conc 20): 96.2534%
- % inhibition apPOL 180' (DRC-1, conc 40): 95.7686%
- % inhibition apPOL 180' (DRC-1, conc 80): 95.2166%
- % inhibition Apo pol 5' (DRC-2, conc 2.5): 48%
- % inhibition Apo pol 5' (DRC-2, conc 5): 50%
- % inhibition Apo pol 5' (DRC-2, conc 10): 53%
- % inhibition Apo pol 5' (DRC-2, conc 20): 49%
- % inhibition Apo pol 5' (DRC-2, conc 40): 49%
- % inhibition Apo pol 5' (DRC-2, conc 80): 48%
- % inhibition Apo pol 5' (DRC-2, concentration 2.5): 48%
- % inhibition Apo pol 5' (DRC-2, concentration 20): 49%
- % inhibition Apo pol 5' (DRC-2, concentration 40): 49%
- % inhibition Apo pol 5' (DRC-2, concentration 80): 48%
- % inhibition Apol 40' (DRC-2, conc 2.5): 44%
- % inhibition Apol 40' (DRC-2, conc 5): 57%
- % inhibition Apol 40' (DRC-2, conc 10): 70%
- % inhibition Apol 40' (DRC-2, conc 20): 70%
- % inhibition Apol 40' (DRC-2, conc 40): 69%
- % inhibition Apol 40' (DRC-2, conc 80): 69%
- % inhibition Apol 40' (DRC-2, concentration 10): 70%
- % inhibition Apol 40' (DRC-2, concentration 20): 70%
- % inhibition Apol 40' (DRC-2, concentration 40): 69%
- % inhibition Apol 40' (DRC-2, concentration 80): 69%
- % inhibition ApPOL 90' (DRC-2, conc 2.5): 40%
- % inhibition ApPOL 90' (DRC-2, conc 5): 56%
- % inhibition ApPOL 90' (DRC-2, conc 10): 74%
- % inhibition ApPOL 90' (DRC-2, conc 20): 76%
- % inhibition ApPOL 90' (DRC-2, conc 40): 75%
- % inhibition ApPOL 90' (DRC-2, conc 80): 75%
- % inhibition ApPOL 90' (DRC-2, concentration 20): 76%
- % inhibition ApPOL 90' (DRC-2, concentration 40): 75%
- % inhibition ApPOL 90' (DRC-2, concentration 80): 75%
- % inhibition apPOL 180' (DRC-2, conc 2.5): 25%
- % inhibition apPOL 180' (DRC-2, conc 5): 49%
- % inhibition apPOL 180' (DRC-2, conc 10): 76%
- % inhibition apPOL 180' (DRC-2, conc 20): 80%
- % inhibition apPOL 180' (DRC-2, conc 40): 80%
- % inhibition apPOL 180' (DRC-2, conc 80): 79%
- % inhibition apPOL 180' (DRC-2, concentration 5): 49%
- % inhibition apPOL 180' (DRC-2, concentration 10): 76%
- % inhibition apPOL 180' (DRC-2, concentration 20): 80%
- % inhibition apPOL 180' (DRC-2, concentration 40): 80%
- DNA Pol [2]: 102

Compound: Cc1cc(C)c2c(c1)C1C=CCC1C(c1ccc(C(=O)O)cc1)N2 (stereo not drawn) [Molecule 102, Cc1cc(C)c2c(c1)C1C=CCC1C(N2)c1ccc(cc1)C(=O)O]
- DNA Pol [1]: 60
- % inhibition Apo pol 10' (DRC-1, conc 2.5): 46.2676%
- % inhibition Apo pol 10' (DRC-1, conc 5): 62.6778%
- % inhibition Apo pol 10' (DRC-1, conc 10): 76.4739%
- % inhibition Apo pol 10' (DRC-1, conc 20): 82.8067%
- % inhibition Apo pol 10' (DRC-1, conc 40): 91.6956%
- % inhibition Apo pol 10' (DRC-1, conc 80): 93.5405%
- % inhibition Apol 90' (DRC-1, conc 2.5): 14.3309%
- % inhibition Apol 90' (DRC-1, conc 5): 28.3959%
- % inhibition Apol 90' (DRC-1, conc 10): 47.4171%
- % inhibition Apol 90' (DRC-1, conc 20): 62.2374%
- % inhibition Apol 90' (DRC-1, conc 40): 86.2676%
- % inhibition Apol 90' (DRC-1, conc 80): 94.9161%
- % inhibition apPOL 180' (DRC-1, conc 2.5): 1.778%
- % inhibition apPOL 180' (DRC-1, conc 5): 12.6672%
- % inhibition apPOL 180' (DRC-1, conc 10): 32.4501%
- % inhibition apPOL 180' (DRC-1, conc 20): 53.0918%
- % inhibition apPOL 180' (DRC-1, conc 40): 83.5057%
- % inhibition apPOL 180' (DRC-1, conc 80): 95.0431%
- % inhibition Apo pol 5' (DRC-2, conc 2.5): 40%
- % inhibition Apo pol 5' (DRC-2, conc 5): 51%
- % inhibition Apo pol 5' (DRC-2, conc 10): 55%
- % inhibition Apo pol 5' (DRC-2, conc 20): 58%
- % inhibition Apo pol 5' (DRC-2, conc 40): 59%
- % inhibition Apo pol 5' (DRC-2, conc 80): 58%
- % inhibition Apo pol 5' (DRC-2, concentration 2.5): 40%
- % inhibition Apo pol 5' (DRC-2, concentration 20): 58%
- % inhibition Apo pol 5' (DRC-2, concentration 40): 59%
- % inhibition Apo pol 5' (DRC-2, concentration 80): 58%
- % inhibition Apol 40' (DRC-2, conc 2.5): 34%
- % inhibition Apol 40' (DRC-2, conc 5): 50%
- % inhibition Apol 40' (DRC-2, conc 10): 59%
- % inhibition Apol 40' (DRC-2, conc 20): 71%
- % inhibition Apol 40' (DRC-2, conc 40): 76%
- % inhibition Apol 40' (DRC-2, conc 80): 75%
- % inhibition Apol 40' (DRC-2, concentration 10): 59%
- % inhibition Apol 40' (DRC-2, concentration 80): 75%
- % inhibition ApPOL 90' (DRC-2, conc 2.5): 28%
- % inhibition ApPOL 90' (DRC-2, conc 5): 47%
- % inhibition ApPOL 90' (DRC-2, conc 10): 58%
- % inhibition ApPOL 90' (DRC-2, conc 20): 73%
- % inhibition ApPOL 90' (DRC-2, conc 40): 80%
- % inhibition ApPOL 90' (DRC-2, conc 80): 79%
- % inhibition ApPOL 90' (DRC-2, concentration 10): 58%
- % inhibition apPOL 180' (DRC-2, conc 2.5): 19%
- % inhibition apPOL 180' (DRC-2, conc 5): 40%
- % inhibition apPOL 180' (DRC-2, conc 10): 54%
- % inhibition apPOL 180' (DRC-2, conc 20): 75%
- % inhibition apPOL 180' (DRC-2, conc 40): 83%
- % inhibition apPOL 180' (DRC-2, conc 80): 83%
- % inhibition apPOL 180' (DRC-2, concentration 5): 40%
- % inhibition apPOL 180' (DRC-2, concentration 20): 75%
- % inhibition apPOL 180' (DRC-2, concentration 40): 83%
- % inhibition apPOL 180' (DRC-2, concentration 80): 83%
- DNA Pol [2]: 60
